Measured values taken from US10738056B2 (Aduro BioTech, Inc., priority 2017, dated 2020).

Columns and labels:
[1] = molecular target: Human cGAS amino acids 155-522 (Homo sapiens (Human), UniProt Q8N884); test: cGAS biochemical activity assay (ATP remaining, Kinase-Glo Max luminescence); conditions: human cGAS 155-522, ATP remaining (Kinase-Glo Max); read-out: cGAS IC50
[2] = system: cGAS/STING pathway in THP1 cells; test: THP1 cell-based cGAS/STING pathway activity assay (IRF-3-linked luciferase reporter); conditions: Homo sapiens, THP-1
Text: A cellular assay can be used to assess the compounds of the invention for their ability to inhibit the cGAS/STING pathway. Cells that express a luciferase-based reporter that is linked to IRF-3 activation are used to determine response as a function of compound concentration. Such an assay is described in Vincent et al., Nature Communications 2017, 8(1):750, doi: 10.1038/s41467-017-00833-9.
A cellular assay can be used to assess the compounds of the invention for their ability to inhibit the cGAS/STING pathway. Cells that express a luciferase-based reporter that is linked to IRF-3 activation are used to determine response as a function of compound concentration. Such an assay is described in Vincent et al., Nature Communications 2017, 8(1):750, doi: 10.1038/s41467-017-00833-9. Compounds of the invention were assessed using similar assay methods in a THP1 cell assay to generate IC50 values as provided in the following Table 16. In this table, activity level “A” indicates an IC50 value less than 20 μM, “B” indicates an IC50 value between 20 and 100 μM, and “C” indicates an IC50 value above the upper limit of the assay (100 μM), or where an IC50 value could not be generated from the data.

Chain of Human cGAS amino acids 155-522 (Q8N884 157-522): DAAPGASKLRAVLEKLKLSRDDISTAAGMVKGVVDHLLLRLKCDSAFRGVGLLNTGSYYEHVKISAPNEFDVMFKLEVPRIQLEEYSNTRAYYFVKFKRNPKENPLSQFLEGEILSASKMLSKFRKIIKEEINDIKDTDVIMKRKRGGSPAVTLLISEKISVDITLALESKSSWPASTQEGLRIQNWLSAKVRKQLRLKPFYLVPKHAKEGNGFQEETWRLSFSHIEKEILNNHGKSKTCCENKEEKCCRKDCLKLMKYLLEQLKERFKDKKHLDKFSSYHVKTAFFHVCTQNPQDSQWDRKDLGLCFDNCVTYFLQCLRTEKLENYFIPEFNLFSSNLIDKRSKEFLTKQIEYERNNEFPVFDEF

Row | Compound | IC50 [1] | IC50 [2]
1 | COc1ccnc(NC(=O)c2c(C)[nH]c3c(-c4ccccc4)c(C(F)(F)F)nn3c2=O)n1 [Compound A1104, N-(4-methoxypyrimidin-2-yl)-5-methyl-7-oxo-3-phenyl-2-(trifluoromethyl)-4,7-dihydropyrazolo[1,5-a]pyrimidine-6-carboxamide] | < 20 µM | 20 to 100 µM
2 | Cc1nn2c(=O)c(C(=O)Nc3ccccc3S(C)(=O)=O)c(C)[nH]c2c1-c1ccccc1 [Compound A1106, 2,5-dimethyl-N-(2-(methylsulfonyl)phenyl)-7-oxo-3-phenyl-4,7-dihydropyrazolo[1,5-a]pyrimidine-6-carboxamide] | < 20 µM | > 100 µM
3 | Cc1[nH]c2c(-c3ccccc3)c(C(F)(F)F)nn2c(=O)c1C(=O)Nc1cccc2c1OCCC2 [Compound A1107, N-(chroman-8-yl)-5-methyl-7-oxo-3-phenyl-2-(trifluoromethyl)-4,7-dihydropyrazolo[1,5-a]pyrimidine-6-carboxamide] | < 20 µM | < 20 µM
4 | COc1ccc(NC(=O)c2c(C)[nH]c3c(-c4ccccc4)c(C(F)(F)F)nn3c2=O)nn1 [Compound A1110, N-(6-methoxypyridazin-3-yl)-5-methyl-7-oxo-3-phenyl-2-(trifluoromethyl)-4,7-dihydropyrazolo[1,5-a]pyrimidine-6-carboxamide] | < 20 µM | > 100 µM
5 | CCCS(=O)(=O)NC(=O)c1c(C)[nH]c2c(-c3ccccc3)c(C(F)(F)F)nn2c1=O [Compound A1111, 5-methyl-7-oxo-3-phenyl-N-(propylsulfonyl)-2-(trifluoromethyl)-4,7-dihydropyrazolo[1,5-a]pyrimidine-6-carboxamide] | < 20 µM | > 100 µM
6 | Cc1[nH]c2c(-c3ccccc3)c(C(F)(F)F)nn2c(=O)c1C(=O)NS(=O)(=O)Cc1ccccc1 [Compound A1112, N-(benzylsulfonyl)-5-methyl-7-oxo-3-phenyl-2-(trifluoromethyl)-4,7-dihydropyrazolo[1,5-a]pyrimidine-6-carboxamide] | < 20 µM | 20 to 100 µM
7 | Cc1[nH]c2c(-c3ccccc3)c(C(F)(F)F)nn2c(=O)c1C(=O)Nc1ccc(S(C)(=O)=O)nc1 [Compound A1113, 5-methyl-N-(6-(methylsulfonyl)pyridin-3-yl)-7-oxo-3-phenyl-2-(trifluoromethyl)-4,7-dihydropyrazolo[1,5-a]pyrimidine-6-carboxamide] | 20 to 250 µM | > 100 µM
8 | COCCn1ccc(NC(=O)c2c(C)[nH]c3c(-c4ccccc4)c(C(F)(F)F)nn3c2=O)n1 [Compound A1115, N-(1-(2-methoxyethyl)-1H-pyrazol-3-yl)-5-methyl-7-oxo-3-phenyl-2-(trifluoromethyl)-4,7-dihydropyrazolo[1,5-a]pyrimidine-6-carboxamide] | 20 to 250 µM | > 100 µM

Other lines, results leading:

Row | IC50 [1] | IC50 [2] | Compound
9 | < 20 µM | 20 to 100 µM | Cc1[nH]c2c(-c3ccccc3)c(C(F)(F)F)nn2c(=O)c1C(=O)NS(=O)(=O)c1ccccc1 [Compound A1116, 5-methyl-7-oxo-3-phenyl-N-(phenylsulfonyl)-2-(trifluoromethyl)-4,7-dihydropyrazolo[1,5-a]pyrimidine-6-carboxamide]
10 | 20 to 250 µM | > 100 µM | Cc1[nH]c2c(-c3ccccc3)c(C(F)(F)F)nn2c(=O)c1C(=O)NS(C)(=O)=O [Compound A1117, 5-methyl-N-(methylsulfonyl)-7-oxo-3-phenyl-2-(trifluoromethyl)-4,7-dihydropyrazolo[1,5-a]pyrimidine-6-carboxamide]
11 | 20 to 250 µM | > 100 µM | Cc1[nH]c2c(-c3ccccc3)c(C(F)(F)F)nn2c(=O)c1C(=O)Nc1ccn(CCO)n1 [Compound A1118, N-(1-(2-hydroxyethyl)-1H-pyrazol-3-yl)-5-methyl-7-oxo-3-phenyl-2-(trifluoromethyl)-4,7-dihydropyrazolo[1,5-a]pyrimidine-6-carboxamide]
12 | < 20 µM | > 100 µM | Cc1[nH]c2c(-c3ccccc3)c(C(F)(F)F)nn2c(=O)c1C(=O)NS(=O)(=O)c1ccccn1 [Compound A1120, 5-methyl-7-oxo-3-phenyl-N-(pyridin-2-ylsulfonyl)-2-(trifluoromethyl)-4,7-dihydropyrazolo[1,5-a]pyrimidine-6-carboxamide]
13 | < 20 µM | > 100 µM | COc1ccccc1S(=O)(=O)NC(=O)c1c(C)[nH]c2c(-c3ccccc3)c(C(F)(F)F)nn2c1=O [Compound A1121, N-((2-methoxyphenyl)sulfonyl)-5-methyl-7-oxo-3-phenyl-2-(trifluoromethyl)-4,7-dihydropyrazolo[1,5-a]pyrimidine-6-carboxamide]
14 | < 20 µM | > 100 µM | Cc1[nH]c2c(-c3ccccc3)c(C(F)(F)F)nn2c(=O)c1C(=O)NS(=O)(=O)C1CCCCC1 [Compound A1124, N-(cyclohexylsulfonyl)-5-methyl-7-oxo-3-phenyl-2-(trifluoromethyl)-4,7-dihydropyrazolo[1,5-a]pyrimidine-6-carboxamide]
15 | < 20 µM | 20 to 100 µM | COc1cccc(S(=O)(=O)NC(=O)c2c(C)[nH]c3c(-c4ccccc4)c(C(F)(F)F)nn3c2=O)c1 [Compound A1125, N-((3-methoxyphenyl)sulfonyl)-5-methyl-7-oxo-3-phenyl-2-(trifluoromethyl)-4,7-dihydropyrazolo[1,5-a]pyrimidine-6-carboxamide]
16 | < 20 µM | 20 to 100 µM | Cc1[nH]c2c(-c3ccccc3)c(C(F)(F)F)nn2c(=O)c1C(=O)NS(=O)(=O)c1ccccc1Cl [Compound A1127, N-((2-chlorophenyl)sulfonyl)-5-methyl-7-oxo-3-phenyl-2-(trifluoromethyl)-4,7-dihydropyrazolo[1,5-a]pyrimidine-6-carboxamide]
17 | < 20 µM | > 100 µM | Cc1[nH]c2c(-c3ccccc3)c(C(F)(F)F)nn2c(=O)c1C(=O)NS(=O)(=O)c1cccc(C#N)c1 [Compound A1128, N-((3-cyanophenyl)sulfonyl)-5-methyl-7-oxo-3-phenyl-2-(trifluoromethyl)-4,7-dihydropyrazolo[1,5-a]pyrimidine-6-carboxamide]
18 | < 20 µM | 20 to 100 µM | COc1cccc(CS(=O)(=O)NC(=O)c2c(C)[nH]c3c(-c4ccccc4)c(C(F)(F)F)nn3c2=O)c1 [Compound A1132, N-((3-methoxybenzyl)sulfonyl)-5-methyl-7-oxo-3-phenyl-2-(trifluoromethyl)-4,7-dihydropyrazolo[1,5-a]pyrimidine-6-carboxamide]
19 | < 20 µM | < 20 µM | COc1cccc(NC(=O)c2c(C)[nH]c3c(-c4ccccc4)c(C(F)(F)F)nn3c2=O)c1Cl [Compound A1135, N-(2-chloro-3-methoxyphenyl)-5-methyl-7-oxo-3-phenyl-2-(trifluoromethyl)-4,7-dihydropyrazolo[1,5-a]pyrimidine-6-carboxamide]
20 | < 20 µM | 20 to 100 µM | COc1cccc(NC(=O)c2c(C)[nH]c3c(-c4ccccc4)c(C(F)(F)F)nn3c2=O)c1F [Compound A1136, N-(2-fluoro-3-methoxyphenyl)-5-methyl-7-oxo-3-phenyl-2-(trifluoromethyl)-4,7-dihydropyrazolo[1,5-a]pyrimidine-6-carboxamide]
